Laboratory results: PubChem BioAssay AID2060626 (Molecular Pharmacology Branch, DTP, NCI, 2025)
Where “and” joins values, the source holds several entries; their conditions need not be identical. Identical values can stand only once.

Tested on: 168753-222-R-J1-PDC complex spheroid viability
Assay: Anticancer human tumor 168753-222-R-J1-PDC patient-derived bladder carcinoma cell line growth inhibition [CLK]
Conditions: for viability, T/C: stronger effect = lower value
Procedure, shortened: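 Patient-derived tumor cells grown as complex spheroids with HUVEC endothelial cells and mesenchymal stem cells, treated with drug combinations. Concentrations descend in half-log steps from near clinical Cmax, or from 10 microM if Cmax unknown.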

[1] = curve of first compound, second compound 0.0316 µM
[2] = curve of first compound, second compound 0.1 µM
[3] = curve of first compound, second compound 0.316 µM
[4] = curve of first compound, second compound 1 µM
[5] = curve of first compound, second compound 3.16 µM
[6] = curve of first compound, second compound 10 µM
[7] = second compound 0.0316 µM, first compound 0.0316 µM
[8] = second compound 0.0316 µM, first compound 0.1 µM
[9] = second compound 0.1 µM, first compound 0.0316 µM
[10] = second compound 0.1 µM, first compound 0.1 µM
[11] = second compound 0.316 µM, first compound 0.0316 µM
[12] = second compound 0.316 µM, first compound 0.1 µM
[13] = second compound 1 µM, first compound 0.0316 µM
[14] = second compound 1 µM, first compound 0.1 µM
[15] = second compound 3.16 µM, first compound 0.0316 µM
[16] = second compound 3.16 µM, first compound 0.1 µM
[17] = second compound 10 µM, first compound 0.0316 µM
[18] = second compound 10 µM, first compound 0.1 µM
[19] = second compound 0.0316 µM, first compound 0.316 µM
[20] = second compound 0.0316 µM, first compound 1 µM
[21] = second compound 0.0316 µM, first compound 3.16 µM
[22] = second compound 0.0316 µM, first compound 10 µM
[23] = second compound 0.1 µM, first compound 0.316 µM
[24] = second compound 0.1 µM, first compound 1 µM
[25] = second compound 0.1 µM, first compound 3.16 µM
[26] = second compound 0.1 µM, first compound 10 µM
[27] = second compound 0.316 µM, first compound 0.316 µM
[28] = second compound 0.316 µM, first compound 1 µM
[29] = second compound 0.316 µM, first compound 3.16 µM
[30] = second compound 0.316 µM, first compound 10 µM
[31] = second compound 1 µM, first compound 0.316 µM
[32] = second compound 1 µM, first compound 1 µM
[33] = second compound 1 µM, first compound 3.16 µM
[34] = second compound 1 µM, first compound 10 µM
[35] = second compound 3.16 µM, first compound 0.316 µM
[36] = second compound 3.16 µM, first compound 1 µM
[37] = second compound 3.16 µM, first compound 3.16 µM
[38] = second compound 3.16 µM, first compound 10 µM
[39] = second compound 10 µM, first compound 0.316 µM
[40] = second compound 10 µM, first compound 1 µM
[41] = second compound 10 µM, first compound 3.16 µM
[42] = second compound 10 µM, first compound 10 µM
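Further: viability measured after seven days of drug exposure.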
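Wherever viability, T/C is given: luminescence signal used as surrogate for viable cell amount; 100% = DMSO vehicle control wells.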

## Cn1ncnc1[C@H]1c2n[nH]c(=O)c3cc(F)cc(c23)N[C@@H]1c1ccc(F)cc1 + CN1CCN(c2cc(C(=O)Nc3cc4cc(-c5cnn(C)c5)ccc4cn3)ccn2)CC1
[1]
  IC50: > 100 nM
[2]
  IC50: 4.08 nM
[3]
  IC50: < 0.316 nM
[4]
  IC50: < 0.316 nM
[5]
  IC50: < 0.316 nM
[6]
  IC50: < 0.316 nM
Second compound 0.0316 µM, first compound 0.000316 µM
  viability, T/C: 90.2%
Second compound 0.0316 µM, first compound 0.001 µM
  viability, T/C: 95.1%
Second compound 0.0316 µM, first compound 0.00316 µM
  viability, T/C: 70.5%
Second compound 0.0316 µM, first compound 0.01 µM
  viability, T/C: 101%
[7]
  viability, T/C: 97.9%
[8]
  viability, T/C: 58.2%
Second compound 0.1 µM, first compound 0.000316 µM
  viability, T/C: 58.7%
Second compound 0.1 µM, first compound 0.001 µM
  viability, T/C: 72.5%
Second compound 0.1 µM, first compound 0.00316 µM
  viability, T/C: 54.7%
Second compound 0.1 µM, first compound 0.01 µM
  viability, T/C: 18.7%
[9]
  viability, T/C: 25.8%
[10]
  viability, T/C: 56%
Second compound 0.316 µM, first compound 0.000316 µM
  viability, T/C: 9.67%
Second compound 0.316 µM, first compound 0.001 µM
  viability, T/C: 9.41%
Second compound 0.316 µM, first compound 0.00316 µM
  viability, T/C: 8.77%
Second compound 0.316 µM, first compound 0.01 µM
  viability, T/C: 7.96%
[11]
  viability, T/C: 8.57%
[12]
  viability, T/C: 8.4%
Second compound 1 µM, first compound 0.000316 µM
  viability, T/C: 0.18%
Second compound 1 µM, first compound 0.001 µM
  viability, T/C: 0.28%
Second compound 1 µM, first compound 0.00316 µM
  viability, T/C: 0.18%
Second compound 1 µM, first compound 0.01 µM
  viability, T/C: 0.53%
[13]
  viability, T/C: 0.24%
[14]
  viability, T/C: 0.51%
Second compound 3.16 µM, first compound 0.000316 µM
  viability, T/C: 1.24%
Second compound 3.16 µM, first compound 0.001 µM
  viability, T/C: 0.1%
Second compound 3.16 µM, first compound 0.00316 µM
  viability, T/C: 0.18%
Second compound 3.16 µM, first compound 0.01 µM
  viability, T/C: 0.06%
[15]
  viability, T/C: 0.26%
[16]
  viability, T/C: 0.88%
Second compound 10 µM, first compound 0.000316 µM
  viability, T/C: 0.11%
Second compound 10 µM, first compound 0.001 µM
  viability, T/C: 0.27%
Second compound 10 µM, first compound 0.00316 µM
  viability, T/C: 0.25%
Second compound 10 µM, first compound 0.01 µM
  viability, T/C: 0.1%
[17]
  viability, T/C: 0.21%
[18]
  viability, T/C: 0.19%

## C=C(F)C(=O)N1CCN(c2nc(OCC3CCCN3C)nc3c2CCN(c2cccc4cccc(Cl)c24)C3)CC1CC#N (stereo not drawn) + CN1CCN(c2cc(C(=O)Nc3cc4cc(-c5cnn(C)c5)ccc4cn3)ccn2)CC1
[1]
  IC50: 3260 nM
[2]
  IC50: 1230 nM
[3]
  IC50: < 31.6 nM
[4]
  IC50: < 31.6 nM
[5]
  IC50: < 31.6 nM
[6]
  IC50: < 31.6 nM
[7]
  viability, T/C: 89.1%
[8]
  viability, T/C: 111%
[19]
  viability, T/C: 85.8%
[20]
  viability, T/C: 101%
[21]
  viability, T/C: 51.4%
[22]
  viability, T/C: 0.91%
[9]
  viability, T/C: 58.7%
[10]
  viability, T/C: 46.7%
[23]
  viability, T/C: 63.5%
[24]
  viability, T/C: 56.3%
[25]
  viability, T/C: 21.8%
[26]
  viability, T/C: 0.32%
[11]
  viability, T/C: 15.6%
[12]
  viability, T/C: 13%
[27]
  viability, T/C: 11.8%
[28]
  viability, T/C: 8.4%
[29]
  viability, T/C: 4.48%
[30]
  viability, T/C: 1.3%
[13]
  viability, T/C: 0.47%
[14]
  viability, T/C: 0.78%
[31]
  viability, T/C: 0.38%
[32]
  viability, T/C: 0.16%
[33]
  viability, T/C: 0.12%
[34]
  viability, T/C: 1.07%
[15]
  viability, T/C: 0.26%
[16]
  viability, T/C: 0.24%
[35]
  viability, T/C: 0.44%
[36]
  viability, T/C: 0.14%
[37]
  viability, T/C: 0.87%
[38]
  viability, T/C: 0.23%
[17]
  viability, T/C: 0.27%
[18]
  viability, T/C: 0.19%
[39]
  viability, T/C: 0.28%
[40]
  viability, T/C: 0.24%
[41]
  viability, T/C: 0.36%
[42]
  viability, T/C: 2.34%

## CC(C)CC(NC(=O)C(Cc1ccccc1)NC(=O)c1cnccn1)B(O)O (stereo not drawn)
Compound 0.000949 µM
  viability, T/C: 84.2% and 86.5%
Compound 0.003 µM
  viability, T/C: 34.9% and 45.1%
Compound 0.00949 µM
  viability, T/C: 0.64% and 3.31%
Compound 0.03 µM
  viability, T/C: 1.34% and 1.82%
Compound 0.0949 µM
  viability, T/C: 0.77% and 0.3%
Compound 0.3 µM
  viability, T/C: 0.23% and 0.22%
Curve of compound
  IC50: 2.11 nM and 2.62 nM

## COc1ccc([C@@H](O)c2cc(-c3ncnc4cc(N5CCOCC5)ccc34)c(F)cc2Cl)nn1 + CN1CCN(c2cc(C(=O)Nc3cc4cc(-c5cnn(C)c5)ccc4cn3)ccn2)CC1
[1]
  IC50: 361 nM
[2]
  IC50: 47.5 nM
[3]
  IC50: < 31.6 nM
[4]
  IC50: < 31.6 nM
[5]
  IC50: < 31.6 nM
[6]
  IC50: < 31.6 nM
[7]
  viability, T/C: 95.5%
[8]
  viability, T/C: 82.1%
[19]
  viability, T/C: 55.6%
[20]
  viability, T/C: 19.2%
[21]
  viability, T/C: 11.7%
[22]
  viability, T/C: 7.52%
[9]
  viability, T/C: 63%
[10]
  viability, T/C: 26.1%
[23]
  viability, T/C: 13.6%
[24]
  viability, T/C: 13.1%
[25]
  viability, T/C: 10.1%
[26]
  viability, T/C: 7.24%
[11]
  viability, T/C: 9.76%
[12]
  viability, T/C: 8.36%
[27]
  viability, T/C: 8.98%
[28]
  viability, T/C: 7.9%
[29]
  viability, T/C: 7.78%
[30]
  viability, T/C: 3.67%
[13]
  viability, T/C: 0.16%
[14]
  viability, T/C: 0.12%
[31]
  viability, T/C: 0.13%
[32]
  viability, T/C: 0.07%
[33]
  viability, T/C: 0.79%
[34]
  viability, T/C: 0.13%
[15]
  viability, T/C: 0.05%
[16]
  viability, T/C: 0.08%
[35]
  viability, T/C: 0.15%
[36]
  viability, T/C: 0.05%
[37]
  viability, T/C: 0.09%
[38]
  viability, T/C: 0.54%
[17]
  viability, T/C: 0.04%
[18]
  viability, T/C: 0.81%
[39]
  viability, T/C: 1.23%
[40]
  viability, T/C: 0.1%
[41]
  viability, T/C: 0.4%
[42]
  viability, T/C: 0.47%
